Assay results as given in PubChem BioAssay (NCI).
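Briefly, cells in 96-well plates were exposed to five compound concentrations for 48 h, and endpoints were estimated by linear interpolation. TGI is the concentration that stops growth completely.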

Key:
Experiment in all cases: DTP human tumour cell line panel, 48 h
EKVX NSCLC = test system: EKVX NSCLC
UO-31 renal = test system: UO-31 renal
NCI-H23 lung = test system: NCI-H23 lung
HOP-62 NSCLC = test system: HOP-62 NSCLC
T-47D breast = test system: T-47D breast
SF-268 CNS = test system: SF-268 CNS
DU-145 prostate = test system: DU-145 prostate
PC-3 prostate = test system: PC-3 prostate
LOX IMVI melanoma = test system: LOX IMVI melanoma
SW-620 colon = test system: SW-620 colon
HT29 colon = test system: HT29 colon
SF-539 CNS = test system: SF-539 CNS
KM12 colon = test system: KM12 colon
A549 NSCLC = test system: A549 NSCLC
SF-295 CNS = test system: SF-295 CNS
SNB-75 CNS = test system: SNB-75 CNS
OVCAR-8 ovarian = test system: OVCAR-8 ovarian
HCT-116 colon = test system: HCT-116 colon
SK-MEL-28 melanoma = test system: SK-MEL-28 melanoma
SN12C renal = test system: SN12C renal
U251 CNS = test system: U251 CNS
NCI/ADR-RES ovarian = test system: NCI/ADR-RES ovarian
CAKI-1 renal = test system: CAKI-1 renal
ACHN renal = test system: ACHN renal
NCI-H226 lung = test system: NCI-H226 lung
COLO 205 colon = test system: COLO 205 colon
OVCAR-5 ovarian = test system: OVCAR-5 ovarian
MDA-MB-435 = test system: MDA-MB-435
TK-10 renal = test system: TK-10 renal
MDA-MB-231 breast = test system: MDA-MB-231 breast
OVCAR-3 ovarian = test system: OVCAR-3 ovarian
K-562 leukemia = test system: K-562 leukemia
MOLT-4 leukemia = test system: MOLT-4 leukemia
M14 melanoma = test system: M14 melanoma
NCI-H460 lung = test system: NCI-H460 lung
RXF 393 renal = test system: RXF 393 renal
CCRF-CEM leukemia = test system: CCRF-CEM leukemia
OVCAR-4 ovarian = test system: OVCAR-4 ovarian
A498 renal = test system: A498 renal
HOP-92 NSCLC = test system: HOP-92 NSCLC
SK-OV-3 ovarian = test system: SK-OV-3 ovarian
UACC-257 melanoma = test system: UACC-257 melanoma
SK-MEL-2 melanoma = test system: SK-MEL-2 melanoma
SR leukemia = test system: SR leukemia
786-0 renal = test system: 786-0 renal
HL-60(TB) leukemia = test system: HL-60(TB) leukemia
MDA-N = test system: MDA-N
HCT-15 colon = test system: HCT-15 colon
HCC-2998 colon = test system: HCC-2998 colon
MCF7 breast = test system: MCF7 breast
SNB-19 CNS = test system: SNB-19 CNS
IGROV1 ovarian = test system: IGROV1 ovarian
RPMI-8226 leukemia = test system: RPMI-8226 leukemia
HS 578T breast = test system: HS 578T breast
BT-549 breast = test system: BT-549 breast
UACC-62 melanoma = test system: UACC-62 melanoma
NCI-H522 lung = test system: NCI-H522 lung
SK-MEL-5 melanoma = test system: SK-MEL-5 melanoma

Measured: TGI

NC(N)=NCCCC(NC(=O)OCCCCCn1ccc(N)nc1=O)C(=O)O (stereo not drawn)
not listed: NCI-H522 lung | SK-MEL-5 melanoma
> 100 µM: all other assays above

[N-]=[N+]=NCC1OCC(O)C(OCc2ccccc2)C1OCc1ccccc1 (stereo not drawn)
not listed: RXF 393 renal
> 100 µM: all other assays above
